Data as given in patent EP3917907B1, “MODULATORS OF POTASSIUM ION CHANNELS AND USES THEREOF” (Universitá Degli Studi Di Salerno, priority 2019, dated 2020).

Tests used:
Kv7.2 = target: T1, Kv7.2 (Homo sapiens, UniProt O43526); assay: Whole-cell patch-clamp on CHO cells transiently expressing Kv7.2; type: cell-based; conditions: CHO cells, mean±SEM, >1 activating, <1 inhibiting; for Idrug/Ictl at 0 mV: ratio of ramp-evoked Kv7.2 current amplitude in presence and absence of drug at 0 mV; for Idrug/Ictl at -40 mV: ratio of ramp-evoked Kv7.2 current amplitude in presence and absence of drug at -40 mV
T1 construct: expressed in transfected cells; host or cells: CHO cells (ATCC CRL-9618), transient transfection, pcDNA3.1(+)
Description: According to the experimental protocol, these plasmids were expressed individually or in combination (in particular of Kv7.2 and Kv7.3), together with a plasmid-expressing enhanced green fluorescent protein (Clontech, Palo Alto, CA) used as a transfection marker. Total cDNA in the transfection mixture was kept at 4 µg. CHO cells were grown in 100-mm plastic Petri dishes in Dulbecco's modified Eagle's medium containing 10% fetal bovine serum, nonessential amino acids (0.1 mM), penicillin (50 U/ml), and streptomycin ([…]) in a humidified atmosphere at 37°C with 5% CO2. The cells were plated on glass coverslips coated with poly-L-lysine, and transfected one day after plating with the appropriate cDNA using Lipofectamine 2000 (Life Technologies), according to the manufacturer's protocol.
Currents from CHO cells were recorded at room temperature (20-22°C) 24 hours after trasfection using the whole-cell configuration of the patch-clamp technique, with glass micropipettes of 3-5 MΩ resistance. During the recording, constant perfusion of extracellular solution was maintained. The extracellular solution contained (in mM): 138 NaCl, 2 CaCl2, 5.4 KCl, 1 MgCl2, 10 glucose, and 10 HEPES, at pH 7.4, adjusted with NaOH. The pipette (intracellular) solution contained (in mM): 140 KCl, 2 MgCl2, 10 EGTA, 10 HEPES, 5 Mg^2+-ATP, at pH 7.3-7.4, adjusted with KOH. Currents were recorded using an Axopatch-200A amplifier, filtered at 5 kHz, and digitized using a DigiData 1440A (Molecular Devices). The pCLAMP software (version 10.2, Molecular Devices) was used for data acquisition and analysis. To evaluate the activity of exemplary compounds on Kv7.2 (see Table 1), as well as on Kv7.1, Kv7.2/7.3, Kv7.3 and Kv7.4 channels for selected compounds (see Table 2), the cells were clamped at -80 mV and currents were elicited by 3-s voltage ramps from -80 mV to +20 mV in the presence and absence of each compound. […] The effects of drugs were expressed as shift in the ramp-voltage (ΔV) calculated at 20% of the maximal current (Miceli et al, Proc Natl Acad Sci U S A. 2013, 110(11):4386-91). Curves were fitted using the following equation: y=max/(1+x/EC50)n, where x is the drug concentration, n is the Hill coefficient and max is the maximal value achieved, as previously described (Ambrosino et al, Br J Pharmacol. 2013, 168(6):1430-1444). Data analysis and fit were performed using Sigmaplot (version 12.3).
Ramp-evoked Kv7.2 currents were analyzed by measuring the currents at -40 mV (a membrane potential value close to the activation threshold) and at 0 mV (a membrane potential value at which Kv7.2 conductance is largely saturated). In particular, -40 mV represents the threshold potential for spike initiation and 0 mV represents instead the membrane potential value at which maximal conductance of the channel is achieved.
In Table 1, the effect of exemplary compounds of the invention is expressed as the ratio between current amplitude in the presence (Idrug) and absence (Ictl) of the drug at these two membrane voltages. […]

[1] = Photostability (HPLC, solar simulator irradiation); type: physicochemical; conditions: percentage of degradation after 6 h irradiation with solar simulator; 100 ppm in extracellular solution pH 7.4
Description: (§1) In order to study the solution stability and photostability of the potassium channel modulators object of the present invention, a stock solution of the proper analyte (1 mg/mL) in dimethylsulfoxide (DMSO) has been prepared. This solution has been then diluted to a concentration of 100 ppm using extracellular solution containing (in mM): 138 NaCl, 2 CaCl2, 5.4 KCl, 1 MgCl2, 10 glucose, and 10 HEPES, at pH 7.4, adjusted with NaOH. To measure solution stability, the diluted solutions have been maintained at ambient temperature for 6 h. To measure photostability, the diluted solutions have been irradiated for 6 h using a Oriel Sol3A Solar Simulator (Newport corporation, Irvine, CA, USA) with a 12x12 inches output beam. Aliquots of solution have been withdrawn after 6h and analyzed by HPLC using a Kinetex C18, 150 mm × 4.6 mm × 2.6 µm (Phenomenex, Bologna, Italy) as stationary phase and a mobile phase constituted by A: H2O/CH3CN (80:20) and B: CH3CN. Gradient elution has been performed from 20% to 90% of B in 7.50 minutes and from 90% to 20% of B in 1 minute. The pump flux has been set to 1.5 mL/min. Column has been thermostatted at 40°C during analysis. Results are espressed in Table 3 as percentage of degradation of the product calculated as ratio between the peak area of the analyte at time 0 (Pa0) and after 6h (Pa6) using the following formula: % degradation = (Pa0−Pa6)/Pa0 *100. [formula]

[2] = Solution stability (HPLC, extracellular solution, ambient temperature); type: physicochemical; conditions: percentage of degradation after 6 h at ambient temperature; 100 ppm in extracellular solution pH 7.4
Description: as §1

Row | SMILES | Idrug/Ictl at 0 mV (Kv7.2) | Idrug/Ictl at -40 mV (Kv7.2) | Photostability [1] | Solution stability [2]
1 | O=S(=O)(Nc1ccc2c(ccn2Cc2ccc(C(F)(F)F)cc2)c1)C1CCCCC1 [N-(1-(4-(trifluoromethyl)benzyl)-1H-indol-5-yl)cyclohexanesulfonamide] | 1.93±0.19 | 2.27±0.49 | A (degradation lower than 20%) | A (degradation lower than 20%)
2 | O=S(=O)(Nc1ccc2c(c1)CCN2Cc1ccc(C(F)(F)F)cc1)C1CCCCC1 [N-(1-(4-(trifluoromethyl)benzyl)indolin-5-yl)cyclohexanesulfonamide] | 2.37±0.58 | 3.2±0.20 | C (degradation > 40%) | C (degradation > 40%)
3 | O=[N+]([O-])c1cc(Br)ccc1CN1CCc2cc(NS(=O)(=O)C3CCCCC3)ccc21 [N-(1-(4-bromo-2-nitrobenzyl)indolin-5-yl)cyclohexanesulfonamide] | 3.09±0.52 | 7.27±1.32 | C (degradation > 40%) | B (20%< degradation<40%)
4 | O=C(c1ccc(F)cc1)N1CCc2cc(NS(=O)(=O)C3CCCCC3)ccc21 [N-(1-(4-fluorobenzoyl)indolin-5-yl)cyclohexanesulfonamide] | 1.22±0.07 | 1.85±0.30 | B (20%< degradation<40%) | A (degradation lower than 20%)
5 | O=S(=O)(Nc1ccc2c(ccn2Cc2ccc(F)cc2)c1)C1CCCCC1 [N-(1-(4-fluorobenzyl)-1H-indol-5-yl)cyclohexanesulfonamide] | 2.76±0.19 | 4.71±1.31 | A (degradation lower than 20%) | A (degradation lower than 20%)
6 | CC(C)CS(=O)(=O)Nc1ccc2c(c1)CCN2Cc1ccc(F)cc1 [N-(1-(4-fluorobenzyl)indolin-5-yl)-2-methylpropane-1-sulfonamide] | 1.93±0.32 | 2.55±0.79 | C (degradation > 40%) | C (degradation > 40%)
7 | CC1CC(C)CN(S(=O)(=O)Nc2ccc3c(c2)CCN3Cc2ccc(F)cc2)C1 (stereo not drawn) [N-(1-(4-fluorobenzyl)indolin-5-yl)-3,5-dimethylpiperidine-1-sulfonamide] | 1.87±0.22 | 1.91±0.44 | B (20%< degradation<40%) | B (20%< degradation<40%)

Results, then the compound that gave them:

Row | Idrug/Ictl at 0 mV (Kv7.2) | Idrug/Ictl at -40 mV (Kv7.2) | Photostability [1] | Solution stability [2] | SMILES
8 | 0.95±0.07 | 1.25±0.19 | B (20%< degradation<40%) | B (20%< degradation<40%) | CN1CCN(S(=O)(=O)Nc2ccc3c(c2)CCN3Cc2ccc(F)cc2)CC1 [N-(1-(4-fluorobenzyl)indolin-5-yl)-4-methylpiperazine-1-sulfonamide]
9 | 1.64±0.20 | 1.88±0.14 | A (degradation lower than 20%) | A (degradation lower than 20%) | CC(=O)Nc1ccc2c(c1)CCN2Cc1ccc(F)cc1 [N-(1-(4-fluorobenzyl)indolin-5-yl)acetamide]
10 | 0.98±0.11 | 0.89±0.12 | B (20%< degradation<40%) | B (20%< degradation<40%) | O=S(=O)(Nc1ccc2c(c1)CCN2Cc1ccc(F)cc1)N1CCCCCC1 [N-(1-(4-fluorobenzyl)indolin-5-yl)azepane-1-sulfonamide]
11 | 0.64±0.14 | 1.15±0.28 | B (20%< degradation<40%) | A (degradation lower than 20%) | O=S(=O)(Nc1ccc2c(c1)CCN2Cc1ccc(F)cc1)c1ccccc1 [N-(1-(4-fluorobenzyl)indolin-5-yl)benzenesulfonamide]
12 | 1.55±0.12 | 2.03±0.19 | C (degradation > 40%) | C (degradation > 40%) | CCCCS(=O)(=O)Nc1ccc2c(c1)CCN2Cc1ccc(F)cc1 [N-(1-(4-fluorobenzyl)indolin-5-yl)butane-1-sulfonamide]
